Source: ChEMBL document CHEMBL1201862, “PubChem BioAssay data set” (2004)
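Protocol summary: plate cells (96-well), add compound at 5 concentrations, incubate 48 h, interpolate endpoints linearly. GI50: concentration for 50% inhibition of growth.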 Activity calls are given as the source filed them. Rule as the data show it: active = GI50 up to about 1.1 µM and inactive = higher.

Legend:
Test in all cases: NCI tumour cell line growth inhibition, 48 h
786-0 = tested on: 786-0
A498 = tested on: A498
A549 = tested on: A549
ACHN = tested on: ACHN
CCRF-CEM = tested on: CCRF-CEM
COLO 205 = tested on: COLO 205
DU-145 = tested on: DU-145
EKVX = tested on: EKVX
HCT-116 = tested on: HCT-116
HCT-15 = tested on: HCT-15
HOP-62 = tested on: HOP-62
HOP-92 = tested on: HOP-92
HT-29 = tested on: HT-29
Hs-578T = tested on: Hs-578T
IGROV-1 = tested on: IGROV-1
K562 = tested on: K562
KM12 = tested on: KM12
LOX IMVI = tested on: LOX IMVI
M14 = tested on: M14
MCF7 = tested on: MCF7
MDA-MB-231 = tested on: MDA-MB-231
MDA-MB-435 = tested on: MDA-MB-435
MDA-N = tested on: MDA-N
MOLT-4 = tested on: MOLT-4
Malme-3M = tested on: Malme-3M
NCI-H226 = tested on: NCI-H226
NCI-H23 = tested on: NCI-H23
NCI-H522 = tested on: NCI-H522
NCI/ADR-RES = tested on: NCI/ADR-RES
OVCAR-3 = tested on: OVCAR-3
OVCAR-4 = tested on: OVCAR-4
OVCAR-5 = tested on: OVCAR-5
OVCAR-8 = tested on: OVCAR-8
PC-3 = tested on: PC-3
RPMI-8226 = tested on: RPMI-8226
SF-268 = tested on: SF-268
SF-295 = tested on: SF-295
SK-MEL-28 = tested on: SK-MEL-28
SK-MEL-2 = tested on: SK-MEL-2
SK-MEL-5 = tested on: SK-MEL-5
SK-OV-3 = tested on: SK-OV-3
SN12C = tested on: SN12C
SNB-19 = tested on: SNB-19
SNB-75 = tested on: SNB-75
SR = tested on: SR
SW-620 = tested on: SW-620
TK-10 = tested on: TK-10
U-251 = tested on: U-251
UACC-62 = tested on: UACC-62
UO-31 = tested on: UO-31
CAKI-1 = tested on: CAKI-1
HCC 2998 = tested on: HCC 2998
HL-60 = tested on: HL-60
NCI-H460 = tested on: NCI-H460
SF-539 = tested on: SF-539
T47D = tested on: T47D
UACC-257 = tested on: UACC-257
RXF 393 = tested on: RXF 393

## CCC(C)C(NC(=O)c1cccc2c(=O)c3ccccc3[nH]c12)C(=O)O (configuration not stated)
786-0
  GI50: > 100 µM (inactive)
A498
  GI50: > 100 µM (inactive)
A549
  GI50: 98.9 µM (inactive)
ACHN
  GI50: 86.7 µM (inactive)
CCRF-CEM
  GI50: 64 µM (inactive)
COLO 205
  GI50: > 100 µM (inactive)
DU-145
  GI50: > 100 µM (inactive)
EKVX
  GI50: > 100 µM (inactive)
HCT-116
  GI50: > 100 µM (inactive)
HCT-15
  GI50: > 100 µM
HOP-62
  GI50: > 100 µM (inactive)
HOP-92
  GI50: 94.4 µM (inactive)
HT-29
  GI50: > 100 µM (inactive)
Hs-578T
  GI50: > 100 µM (inactive)
IGROV-1
  GI50: 96.8 µM (inactive)
K562
  GI50: 91.8 µM (inactive)
KM12
  GI50: 61.1 µM (inactive)
LOX IMVI
  GI50: > 100 µM (inactive)
M14
  GI50: > 100 µM (inactive)
MCF7
  GI50: > 100 µM (inactive)
MDA-MB-231
  GI50: > 100 µM (inactive)
MDA-MB-435
  GI50: > 100 µM (inactive)
MDA-N
  GI50: > 100 µM (inactive)
MOLT-4
  GI50: 82.6 µM (inactive)
Malme-3M
  GI50: > 100 µM (inactive)
NCI-H226
  GI50: > 100 µM (inactive)
NCI-H23
  GI50: > 100 µM (inactive)
NCI-H522
  GI50: > 100 µM (inactive)
NCI/ADR-RES
  GI50: > 100 µM (inactive)
OVCAR-3
  GI50: > 100 µM (inactive)
OVCAR-4
  GI50: 43.8 µM (inactive)
OVCAR-5
  GI50: > 100 µM (inactive)
OVCAR-8
  GI50: > 100 µM (inactive)
PC-3
  GI50: > 100 µM (inactive)
RPMI-8226
  GI50: 57.1 µM (inactive)
SF-268
  GI50: 87.5 µM (inactive)
SF-295
  GI50: 83.4 µM (inactive)
SK-MEL-28
  GI50: > 100 µM (inactive)
SK-MEL-2
  GI50: > 100 µM (inactive)
SK-MEL-5
  GI50: > 100 µM (inactive)
SK-OV-3
  GI50: > 100 µM (inactive)
SN12C
  GI50: > 100 µM (inactive)
SNB-19
  GI50: 99.5 µM (inactive)
SNB-75
  GI50: 78.7 µM (inactive)
SR
  GI50: > 100 µM (inactive)
SW-620
  GI50: > 100 µM (inactive)
TK-10
  GI50: > 100 µM (inactive)
U-251
  GI50: 73.5 µM (inactive)
UACC-62
  GI50: > 100 µM (inactive)
UO-31
  GI50: 48.6 µM (inactive)

## CC1CN=C(N(C(=O)Nc2ccc(Cl)cc2)c2cccc(Cl)c2)S1 (configuration not stated)
786-0
  GI50: 23.9 µM (inactive)
A498
  GI50: 16.9 µM (inactive)
A549
  GI50: 25.6 µM (inactive)
ACHN
  GI50: 10.8 µM (inactive)
CAKI-1
  GI50: 12.9 µM (inactive)
CCRF-CEM
  GI50: 17.8 µM (inactive)
COLO 205
  GI50: 18.5 µM (inactive)
DU-145
  GI50: 46.8 µM (inactive)
EKVX
  GI50: 31.2 µM (inactive)
HCC 2998
  GI50: 20.9 µM (inactive)
HCT-116
  GI50: 20.4 µM (inactive)
HCT-15
  GI50: 11.3 µM
HL-60
  GI50: 48.2 µM (inactive)
HOP-62
  GI50: > 100 µM (inactive)
HOP-92
  GI50: 26.3 µM (inactive)
HT-29
  GI50: 23 µM (inactive)
Hs-578T
  GI50: 50.1 µM (inactive)
IGROV-1
  GI50: 24.4 µM (inactive)
K562
  GI50: 7.06 µM (inactive)
KM12
  GI50: 24.9 µM (inactive)
LOX IMVI
  GI50: 21.6 µM (inactive)
M14
  GI50: 7.24 µM (inactive)
MCF7
  GI50: 34.7 µM (inactive)
MDA-MB-231
  GI50: 39.3 µM (inactive)
MDA-N
  GI50: 24.9 µM (inactive)
MOLT-4
  GI50: > 10 µM (inactive)
Malme-3M
  GI50: 59 µM (inactive)
NCI-H23
  GI50: 35.1 µM (inactive)
NCI-H460
  GI50: 27.1 µM (inactive)
NCI/ADR-RES
  GI50: 19.2 µM (inactive)
OVCAR-3
  GI50: 40.6 µM (inactive)
OVCAR-4
  GI50: 46.3 µM (inactive)
OVCAR-5
  GI50: > 100 µM (inactive)
OVCAR-8
  GI50: 36.9 µM (inactive)
PC-3
  GI50: 25.2 µM (inactive)
RPMI-8226
  GI50: > 10 µM (inactive)
SF-268
  GI50: 54.2 µM (inactive)
SF-295
  GI50: 20.1 µM (inactive)
SF-539
  GI50: 33.7 µM (inactive)
SK-MEL-28
  GI50: 28.6 µM (inactive)
SK-MEL-2
  GI50: 16.6 µM (inactive)
SK-MEL-5
  GI50: 17.5 µM (inactive)
SK-OV-3
  GI50: > 100 µM (inactive)
SN12C
  GI50: 15.7 µM (inactive)
SNB-19
  GI50: > 100 µM (inactive)
SNB-75
  GI50: 65 µM (inactive)
SR
  GI50: 29.3 µM (inactive)
SW-620
  GI50: 41.9 µM (inactive)
T47D
  GI50: 13 µM (inactive)
TK-10
  GI50: 15 µM (inactive)
U-251
  GI50: 70.3 µM (inactive)
UACC-257
  GI50: 28.2 µM (inactive)
UO-31
  GI50: 37.4 µM (inactive)

## COc1cc2c(cc1OCCCOS(C)(=O)=O)N=C[C@@H]1CCCN1C2=O
786-0
  GI50: > 100 µM (inactive)
A498
  GI50: > 100 µM (inactive)
A549
  GI50: > 100 µM (inactive)
ACHN
  GI50: > 100 µM (inactive)
CAKI-1
  GI50: > 100 µM (inactive)
COLO 205
  GI50: > 100 µM (inactive)
DU-145
  GI50: > 100 µM (inactive)
EKVX
  GI50: > 100 µM (inactive)
HCC 2998
  GI50: > 100 µM (inactive)
HCT-116
  GI50: > 100 µM (inactive)
HCT-15
  GI50: > 100 µM
HL-60
  GI50: > 100 µM (inactive)
HOP-92
  GI50: > 100 µM (inactive)
HT-29
  GI50: > 100 µM (inactive)
Hs-578T
  GI50: > 100 µM (inactive)
IGROV-1
  GI50: > 100 µM (inactive)
KM12
  GI50: > 100 µM (inactive)
LOX IMVI
  GI50: > 100 µM (inactive)
M14
  GI50: > 100 µM (inactive)
MCF7
  GI50: > 100 µM (inactive)
MDA-MB-231
  GI50: > 100 µM (inactive)
MDA-MB-435
  GI50: > 100 µM (inactive)
MOLT-4
  GI50: > 100 µM (inactive)
Malme-3M
  GI50: > 100 µM (inactive)
NCI-H226
  GI50: > 100 µM (inactive)
NCI-H23
  GI50: > 100 µM (inactive)
NCI-H460
  GI50: > 100 µM (inactive)
NCI-H522
  GI50: > 100 µM (inactive)
NCI/ADR-RES
  GI50: > 100 µM (inactive)
OVCAR-3
  GI50: > 100 µM (inactive)
OVCAR-8
  GI50: > 100 µM (inactive)
RPMI-8226
  GI50: > 100 µM (inactive)
RXF 393
  GI50: > 100 µM (inactive)
SF-268
  GI50: > 100 µM (inactive)
SF-295
  GI50: > 100 µM (inactive)
SF-539
  GI50: > 100 µM (inactive)
SK-MEL-28
  GI50: > 100 µM (inactive)
SK-MEL-2
  GI50: > 100 µM (inactive)
SK-MEL-5
  GI50: > 100 µM (inactive)
SK-OV-3
  GI50: > 100 µM (inactive)
SN12C
  GI50: > 100 µM (inactive)
SNB-19
  GI50: > 100 µM (inactive)
SW-620
  GI50: > 100 µM (inactive)
T47D
  GI50: > 100 µM (inactive)
TK-10
  GI50: > 100 µM (inactive)
U-251
  GI50: > 100 µM (inactive)
UACC-257
  GI50: > 100 µM (inactive)
UACC-62
  GI50: > 100 µM (inactive)
UO-31
  GI50: > 100 µM (inactive)
